Measured values as given in patent US20220339178A1, “COMPOSITIONS AND METHODS FOR COGNITIVE PROTECTION OF POLLINATORS AGAINST PESTICIDES” (priority 2019, published 2022).

How the values were obtained:
[1] = tested on: Honey bee foragers (Apis mellifera scutellata); test: Sucrose responsiveness (sensory sensitivity) of honey bees: flavonoids vs deltamethrin; assay type: in vivo; details: for sensitivity (sucrose responsiveness, total PER score) relative to Control bees: honey bees, rutin 1 μM, kaempferol 131.7 μM or both for one day, 17.81 μM deltamethrin next day, pooled score
Method: (§1) Honey bee foragers (Apis mellifera scutellata) were captured from established hives at the Apiary of the Universidad del Rosario (Bogota, Colombia) between 08:00 h and 10:00 h. Bees were ice-anesthetized and harnessed in plastic tubes and maintained under laboratory conditions for the duration of the experiment (three days).
On the first day, bees were randomly allocated to one of four treatments administered as two doses (morning: 20 μL; afternoon:10 μL): i) Control (1M sucrose solution), ii) Rutin 1 μM (Sigma-Aldrich R5143), iii) Kaempferol 131.7 μM (Sigma-Aldrich K0133), iv) Rutin-Kaempferol composition (final concentration of […] rutin and 131.7 μM kaempferol). All solutions were diluted in 1M sucrose solution to the concentrations described above. The next day, bees from each group were randomly assigned to one of two treatments: […] of 1M sucrose solution or 17.81 μM deltamethrin (Dinastia Bayer). Thus, bees belonged to one of eight treatments: i) Sucrose water (Control), ii) Rutin (Rut), iii) Kaempferol (Kaemp), iv) Kaempferol+Rutin (Kaemp+Rut), v) Deltamethrin (Delta), vi) Rutin+Deltamethrin (Rut+Delta), vii) Kaempferol+Deltamethrin (Kaemp+Delta), viii) Kaempferol+Rutin+Deltamethrin ((Kaemp+Rut)+Delta). All solutions were diluted in 1M sugar water to the concentrations described above.
Sensory sensitivity was evaluated using responsiveness to sucrose, a proxy of resource exploitation by foragers. On the second day, bees of the eight treatments described above were tested five times for their response threshold (0 h, 1 h, 2 h, 3 h and 4 h). The first measure (0 h) was done prior to pesticide administration. Bees were tested with an ascending sucrose concentration of 0.1, 0.3, 1, 3, 10 and 30% (w/w). Between each concentration, the bees were presented with pure water as a control for potential sensitization or habituation (Pankiw et al., Behav Ecol Sociobiol (2000) 47:265-267). The inter-trial time between the presentation of each sucrose concentration was at least 4 minutes. For each presentation, the reflexive extension of the proboscis (tongue) of the bee, after antennal stimulation with the solution was recorded. After the last measure (4 h), bees were fed with 10 μL of 1M sucrose solution and maintained until the next day for a final test (24 hours after pesticide administration).
For each bee, a responsiveness score was determined (0-7) 0 h, 1 h, 2 h, 3 h, 4 h and 24 h, and a pooled scored (0-42). Normal distribution of the scores was tested using Shapiro-Wilk W Test for the null hypothesis that data is from a Normal distribution. […] Thus, non-parametric tests were used for comparisons across treatments and for multiple comparisons. Overall changes of responses across different concentrations were evaluated using repeated-measured MANOVA. Error associated with multiple comparisons was controlled using the Two-stage sharpened False Discovery Rate, and corrected p-values (q-values) are presented. Data were explored for outliers using a single run of Robust Fit outliers test. All analyses were conducted using JMP v.14 (SAS Institute Inc.)

[2] = tested on: bumblebee Bombus impatiens; test: Olfactory conditioning of PER in bumblebees: ad libitum rutin vs acute imidacloprid or fipronil; assay type: in vivo
Method: One colony of the bumblebee Bombus impatiens (Koppert Inc) was kept in laboratory conditions. Bees received pollen inside the nests and foraged to a 1M sugar-water feeder outside of the nest. Bees were collected while on the feeder and iced anesthetized to then be randomly assigned to one of two plastic containers where ad libitum self-administration of one of two solutions was allowed to 10 bees: i) 1 M sucrose water or ii) 1 μM Rutin (Sigma-Aldrich R5143) diluted in 1M sucrose water. On the night of the third day, the feeder was removed to starve the bees. On the fourth day, the bees were iced anesthetized and yolked restrained in plastic pipettes. Bees were maintained in the pipettes for the rest of the experiment (two days). One hour after harnessing, the bees were randomly assigned to one of three treatments: i) 20 μL of 1M sucrose water, ii) 20 μL of 1M sucrose water+5 nM imidacloprid, iii) 20 μL of 1M sucrose water+6 nM fipronil. Thus, overall bees belonged to one of six treatments:
Control: ad libitum sucrose water for three days and 20 μL of sucrose water before training
Rutin: ad libitum 1 μM Rutin for three days and 20 μL of sucrose water before training
Imid: ad libitum sucrose water for three days and 20 μL of 5 nM Imidacloprid in 1M sugar water 2 hours before training
Rutin+Imid: ad libitum 1 μM Rutin for three days and 20 μL of 5 nM Imidacloprid in 1M sugar water 2 hours before training
Fipronil: ad libitum sucrose water for three days and 20 μL of 5 nM fipronil in 1M sucrose water 2 hours before training
Rutin+Fipronil: ad libitum […] Rutin for three days and 20 μL of 6 nM fipronil in 1M sugar water 2 hours before training
(§2) All bees were blind-trained using olfactory conditioning of the proboscis extension response (PER). Briefly, bees were exposed to a presentation of 1-nonanol (Sigma-Aldrich) for 10 s. After 7 s of the onset of the odor presentation, the antenna was stimulated with 1.5 M sugar-water to elicit the PER. Following the PER, the bee was allowed to drink sugar-water for 3 s. Each paired presentation was considered a training trial and each individual received eleven training trials with an average intertrial interval of 10 minutes. After training, all bees were fed 20 μL of 1M sugar water and maintained in plastic boxes for 24 h until the retention test. […] Twenty-four hours after the last training trial the bees were presented with the conditioned odor for 10 s.
(§3) Learning for each individual was quantified as the number of conditioned PER responses across the trials. Thus, for each bee a learning score between zero and ten (0-10) was recorded.
(§4) Multiple comparisons were then run comparing learning score relative to Control bees using a non-parametric one or two-tailed Steel Method depending upon predictions. These comparisons informed us about the predicted impairment produced by the insecticides, the predicted innocuous effect of the flavonoid and the potential level of protection. Error due to multiple comparisons was controlled using the False Discovery Rate method (FDR-two stage sharpened method). In all cases corrected p-values (q-values) are presented.
(§5) Memory retention was quantified as a nominal variable (yes/no). Data were compared across treatments using a Chi-square test, followed by multiple comparisons of all treatments vs. Control. Error due to multiple comparisons was controlled using the FDR as indicated above. In all cases corrected p-values (q values) are presented.
Latency was quantified as a continuous variable between 0.5 s and 10 s. Data were compared across treatments using an ANOVA following a Log transformation to normalize the distribution (Shapiro-Wilk W Test after log transformation: p>0.05 for all treatments for the null hypothesis that data is from a normal distribution), followed by multiple comparisons between all treatments and the Control group. Error due to multiple comparisons was controlled using the FDR method as indicated above. […]

[3] = tested on: Honey bee foragers (Apis mellifera scutellata); test: Classical conditioning of PER in honey bees: rutin, kaempferol, p-coumaric acid vs fipronil; assay type: in vivo; details: for learning score relative to Control bees: score 0-10, 1 μM rutin, 131 μM kaempferol, 200 μM p-coumaric acid or Mix twice a day for three days, 228 nM fipronil 10 μL three hours before training; for latency of response relative to Control bees: Dunnett's method
Method: as §1, with “(five” for “(three”, “days). Food was provided twice a day in a volumen of 10 μL and varied in composition according to experimental treatments.” for “days).”
Bees were randomly allocated to one of the following treatments administered twice a day for three consecutive days (all concentrations are final):
Control: 1M sucrose water (10 μL)
Rut: 1 μM rutin (Sigma-Aldrich: R5143)-1M sugar water (10 μL)
Kaemp:131 μM kaempferol (Sigma-Aldrich:K0133)+1M sugar water (10 μL)
p-Cou A: 200 μM p-coumaric acid (Sigma-Aldrich:C9008) diluted in 1M sugar water (10 μL)
Mix: 1 μM rutin, 131 μM kaempferol and 200 μM p-Coumaric acid): Bees fed with composition diluted in 1M sugar water (10 μL) fed twice a day for three days
On the fourth day, bees were randomly assigned to one of two treatments three hours before training:
Fipronil: 10 μL of 228 nM Fipronil (Astuto Invesa) in 1M sucrose water
Sucrose solution: 10 μL 1M sucrose water
Thus, bees belong to one of ten treatments: Control, Kaemp, Rut, p-Cou A, Mix, Fipro, Kaemp+Fipro, Rut+Fipro, p-Cou A+Fipro, Mix+Fipro.
Bees were trained using classical conditioning of the proboscis extension response (PER). Briefly, bees received a soft current of clean air for 15 seconds to allow bees to accommodate. Then a soft current of 1-hexanol (Sigma-Aldrich: 471402) was injected for 10 seconds. Six seconds after injection of 1-hexanol, one of the antennae was stimulated with sugar water (1.5M), which leads to the reflexive extension of the proboscis, and the bee was allowed to drink for 4 seconds. Thus, the reward and the stimulus overlapped for four seconds. This sequence, recognized as a training trial, was repeated eleven times. Time was determined using a metronome (2 Hz). Memory retention was tested 24 hours after the eleven training trials. […] 12 bees were trained each session. Training was conducted by an experimenter blind to treatment.
as §3, §4, §5
Latency was quantified as a continuous variable between 0.5 s and 10 s. Data were compared across treatments using an ANOVA following a Log transformation to normalize the distribution (Shapiro-Wilk W Test after log transformation: p>0.05 for all treatments for the null hypothesis that data is from a normal distribution), followed by multiple comparisons between all treatments and the Control group (Dunnett's method). Error due to multiple comparisons was controlled using the FDR method as indicated above. In all cases corrected p-values (q-values) are presented.

[4] = tested on: bumblebee Bombus impatiens; test: Olfactory conditioning of PER in bumblebees: self-administered rutin vs chronic fipronil; assay type: in vivo
Method: One colony of the bumblebee Bombus impatiens (Koppert Inc) was kept in laboratory conditions. Bees received pollen inside the nests and foraged to a 1M sugar-water feeder outside of the nest. Bees were collected while on the feeder and iced anesthetized to then be randomly assigned to one of four plastic containers where self-administration of one of two solutions was allowed to 10 bees out of two feeders (glass vials with 500 μL of solution each): i) 1 M sucrose water or ii) 1 μM Rutin (Sigma-Aldrich R5143) diluted in 1M sucrose water. Feeders were refilled each day for three days. On the night of the third day, one of the vials was replaced by a new one with one of two solutions: i) 1 M sucrose water or ii) 1M sucrose water+6 nM fipronil. Feeders were refilled each day for three more days, thus providing a chronic exposure to fipronil. On the night of the […] day, bees were iced anesthetized and yolked restrained in plastic pipettes. Thus, bees belonged to one of four treatments:
Control: self-administered sucrose water for six days
Rut: self-administered rutin for six days
Fipro: self-administered sucrose water for three days followed by three days of self-administered sucrose water (one feeder) and fipronil (one feeder).
Rut+Fipro: self-administered rutin for three days followed by three days of self-administered rutin (one feeder) and fipronil (one feeder).
as §2, §3
as §4, with “fipronil,” for “insecticides,”, “rutin” for “flavonoid”
as §5
Latency was quantified as a continuous variable between 0.5 s and 10 s. […]

[5] = tested on: AChE; details: literature report; cited from earlier work
[6] = tested on: butyrylcholinesterase (BChE); details: literature report; cited from earlier work
[7] = bumblebees, 24 h retention test

SMILES: CC1(C)[C@H](C(=O)O[C@H](C#N)c2cccc(Oc3ccccc3)c2)[C@@H]1C=C(Br)Br [Deltamethrin]
- sensitivity 24 h after administration of the insecticide relative to Control bees ([1]; 24 h): lowest sensitivity
- bees responding to 30% sucrose water ([1]; after 4 hours): less than 30%
- improvement in response to 30% sucrose water ([1]; after 24 hours): 10%
- bees responsive to 30% sucrose-water ([1]; after one hour): less than 40%
- sensitivity (sucrose responsiveness, total PER score) relative to Control bees [1]: significantly lower

SMILES: N#Cc1nn(-c2c(Cl)cc(C(F)(F)F)cc2Cl)c(N)c1[S+]([O-])C(F)(F)F (stereo not drawn) [Fipronil]
- odds of remembering for Control bees relative to insecticide bees ([2]; 24 h retention): 3.4 times
- proportion difference Control minus insecticide group for a PER response (Adjusted Wald test) ([2]; 24 h retention): 0.30
- decision-making ratio (latency of response / learning score) relative to Control bees ([2]; bumblebees): significant increase
- bees exhibiting a conditioned response after 24 h [2, 7]: 34.6%
- learning score relative to Control bees ([2]; bumblebees, score 0-10, ad libitum 1 μM rutin three days, 5 nM imidacloprid or 6 nM fipronil 20 μL 2 hours before training): significantly lower
- proportion difference Control minus treatment for a PER response (Adjusted Wald test) ([3]; 24 h retention): 0.545
- bees exhibiting a conditioned response after 24 h ([3]; honey bees, 24 h retention test): None
- learning score relative to Control bees ([3]; honey bees): significantly lower
- odds of remembering for Control bees relative to Fipro bees ([4]; 24 h retention): 8.7 times
- proportion difference Control-Fipro for a PER response (Adjusted Wald test) ([4]; 24 h retention): 0.48
- bees exhibiting a conditioned response after 24 h [4, 7]: 33.3%
- learning score relative to Control bees ([4]; bumblebees, score 0-10, self-administered 1 μM rutin six days, 6 nM fipronil feeder for the last three days (chronic)): significantly lower

SMILES: O=c1c(O)c(-c2ccc(O)cc2)oc2cc(O)cc(O)c12 [Kaemp, Kaempferol]
- sensitivity (sucrose responsiveness, total PER score) relative to Control bees [1]: not significantly affected
- latency of response relative to Control bees [3]: not significantly different from Control
- learning score relative to Control bees ([3]; honey bees): not significantly different from Control bees

SMILES: C=CC(C)(C)c1c2c(c(O)c3c(=O)c4ccc(O)c(O)c4oc13)C=CC(C)(C)O2 [macluraxanthone]
- inhibition of AChE [5]: concentration-dependent inhibition ability
- inhibition of butyrylcholinesterase (BChE) [6]: concentration-dependent inhibition ability

SMILES: O=C(O)/C=C/c1ccc(O)cc1 [p-CouA, p-coumaric acid]
- latency of response relative to Control bees [3]: not significantly different from Control
- learning score relative to Control bees ([3]; honey bees): not significantly different from Control bees
